Experimental data published in patent US20220184147A1, “BACTERIAL ENZYMATIC CONVERSION OF ANTHRACYCLINE CHEMOTHERAPEUTICS TO REDUCE TOXICITY AND PROMOTE DIVERSITY AMONG THE INTESTINAL MICROBIOTA” (Northwestem University, priority 2019, published 2022).

Tests used:
C. innocuum = assay: Growth of Dox-sensitive strain in 50% spent media of resistant strains; assay type: cell-based, Clostridium innocuum
Description: (§1) We previously observed that a Dox concentration as low as 10 μM can inhibit the growth of C. innocuum and Lactobacillus. (See FIGS. 7 and 8, respectively).

[1] = test system: mixed-microbial communities of C. innocuum, Lactobacillus sp., E. faecalis, E. coli, and K. pneumoniae; assay: Mixed-microbial communities C1-C5 in continuous anaerobic batch culture exposed to Dox in generation 2; assay type: cell-based
Description: FIG. 11A, FIG. 11B, FIG. 11C, FIG. 11D, and FIG. 11E. […] C1 began with even content of model strains of C innocuum^S, Lactobacillus^S sp., E. faecalisR, E. coli^R*, and K. pneumoniae^R*. C2 included less E. faecalis^R. C3 included less E. coli^R* . C4 included less K. pneumoniae^R*, and C5 included less E. coli^R* and K. pneumoniae^R*. The bacterial communities were grown in continuous batch culture and exposed to different concentrations Dox in generation 2.
The impacts of doxorubicin concentration and microbial community membership (and associated function) on the reduction of bioactive drug and associated microbial community resiliency were investigated in vitro in continuous anaerobic batch culture. Optical density measurements coupled with 16S rRNA gene amplicon sequencing analysis were used to estimate relative bacterial growth and a spectrophotometric assay was used to measure doxorubicin concentration. […] C1 began with even content of model strains of C. innocuum^S, Lactobacillus^S sp., E. faecalis^R, E. coli^R*, and K. pneumoniae^R*. C2 included less E. faecalis^R. C3 included less E. coli^R*. C4 included less K. pneumoniae^R*, and C5 included less E. coli^R* and K. pneumoniae^R*. The bacterial communities were grown in continuous batch culture and exposed to different concentrations Dox in generation 2.
C1, C2, and C3, may have been enhanced in communities with greater bacterial diversity. (See FIGS. 11A, 11B, and 11C, and compare C1 to C2 and C3, at least for the medium concentration). […] (See FIG. 11D, C4). […] (See FIG. 11E, C5). […] (See FIGS. 11A, 11B, and 11C, C1, C2, and C3, generation 3). […] Thus, microbial community membership (and associated function) impacted the rate of doxorubicin transformation, which, in turn, may confer protective effects on drug-sensitive members in gut-microbial communities.

Lactobacillus [2] = assay: Growth of Dox-sensitive strain in 50% spent media of resistant strains; assay type: cell-based, Lactobacillus spp.
Description: as §1

Enterococcus faecalis [3] = assay: Bacterial transformation of Dox, spectrophotometric assay of Dox concentration in culture / spent media
From the text: (§2) A spectrophotometric assay to measure the concentration of active, unmodified, non-transformed doxorubicin was adopted.
(§3) A spectrophotometric assay to measure the concentration of doxorubicin was adopted. […] Our spectrophotometric assays measure the concentration of active, unmodified, non-transformed doxorubicin (Dox) via absorption at λ480 versus concentration of Dox μM.

Clostridium innocuum = assay: Sensitivity of monoculture growth to Dox at various concentrations; assay type: cell-based; conditions: C. innocuum
From the text: (§4) The impacts of doxorubicin on a model community of gut bacteria was investigated in vitro in anaerobic batch culture. The synthetic community was composed of specific members predicted by genomic analysis to be sensitive to the therapeutic (i.e., Clostridium innocuum, Lactobacillus sp.), resistant via putative biotransformation (i.e., Escherichia coli, Klebsiella pneumoniae), or resistant via putative efflux (i.e., Enterococcus faecalis). Bacterial growth was monitored in monocultures by measuring OD600 and standard plate counts, and in mixed cultures by strain-targeted qPCR. Doxorubicin concentration was detected via absorbance assay.
(§5) The effects of Dox on gut-associated bacteria then were investigated in vitro in monoculture and in a synthetic community. […] Bacteria were identified and quantified after culture and treatment using qPCR.
(§6) (See FIGS. 4-8). […] (See FIGS. 4 and 5, respectively).
(§7) (See FIGS. 7 and 8, respectively).

[4] = test system: synthetic community of C. innocuum, E. coli, E. faecalis, and K. pneumoniae; assay: Mixed-batch culture of synthetic community treated with Dox in second generation; assay type: cell-based; conditions: Dox 100 μM added in second generation
Description: We next performed a mixed-batch culture experiment. (See FIGS. 10A and 10B). We prepared a synthetic community by combining cultures of C. innocuum, E. coli, E. faecalis, and K. pneumoniae. We cultured the synthetic community and allowed community formation in a first generation. Subsequently, we added Dox at a concentration of 100 μM and monitored the growth of the members of the synthetic community after treatment/disturbance in a second generation. We then cultured the synthetic community though resiliency in a third generation.
(See FIGS. 10B, middle panel).

Lactobacillus [5] = assay: Sensitivity of monoculture growth to Dox at various concentrations; assay type: cell-based, Lactobacillus spp.
From the text: as §4, §5, §6, §7

Klebsiella pneumoniae [6] = assay: Bacterial transformation of Dox, spectrophotometric assay of Dox concentration in culture / spent media
From the text: as §2, §3
(§8) We next tested the sensitivity or resistance of Escherichia coli, Klebsiella pneumonia, Enterococcus faecalis, Clostridium innocuum or Lactobacillus spp. to Dox at various concentrations. (See FIGS. 4-8). […] (See FIGS. 4 and 5, respectively).

Escherichia coli [7] = assay: as above
From the text: as §2, §3, §8

Enterococcus faecalis [8] = assay: Sensitivity or resistance of monoculture growth to Dox; assay type: cell-based; conditions: E. faecalis
From the text: as §4, §5, §6

Klebsiella pneumoniae [9] = assay: as above; assay type: cell-based; conditions: K. pneumoniae
From the text: as §4, §5, §6

Escherichia coli [10] = assay: as above; assay type: cell-based; conditions: E. coli
From the text: as §4, §5, §6

K. pneumoniae = assay: Modified resting cell assay with gentamicin; assay type: cell-based, Klebsiella pneumoniae; conditions: 10 or 50 μm gentamicin, anaerobic, 37° C., 24 h, controls
Description: FIG. 12A and FIG. 12B. Background gentamicin in culture media “fixes” K. pneumoniae to retain its biotransformation function despite thwarting cell growth. FIG. 12A: K. pneumoniae were first grown anaerobically at 37° C. in media in the presence of doxorubicin for 24 h (i.e., so initial biotransformation took place). Cultures were centrifugated into pellets, which were washed with buffer solution and resuspended in new media containing 100 μm doxorubicin and 0, 10, or 50 μm gentamicin. Inoculum was transferred to positive controls (i.e., with doxorubicin and same gentamicin treatment) and negative controls (i.e., contained doxorubicin, but no gentamicin). All samples were incubated anaerobically at 37° C. for 24 h and bacterial growth and final doxorubicin concentration (i.e., barplot) were determined. […] The two tubes on the far right are control growth media and doxorubicin-containing growth media (i.e., red color intensity corresponds to doxorubicin concentration in solution).
In a modified resting cell assay, we have shown that the biotransformation function can be harnessed without dependency on cell division. (See FIGS. 12A and 12B). Thus, it may be possible to “fix” K. pneumoniae in a form that enzymatically transforms Dox without presenting risk for in vivo colonization/growth. […]

[11] = spent media of E. coli and K. pneumoniae, Dox 4.1±2.5 μM and 4.4±0.9
[12] = spent media of E. faecalis, Dox 48.4±0.8 μM

`COc1cccc2c1C(=O)c1c(O)c3c(c(O)c1C2=O)C[C@@](O)(C(=O)CO)C[C@@H]3O[C@H]1C[C@H](N)[C@H](O)[C@H](C)O1` [Dox, doxorubicin] was tested, and the “Growth in 50% spent media” value (C. innocuum; [11]) was “able to grow”, the “Growth in 50% spent media” value (C. innocuum; [12]) was “unable to grow” and the “Transformation of Dox by bacterial communities” value ([1]; communities containing E. coli and lacking K. pneumoniae (C4)) was “at a slower rate”. The “Transformation of doxorubicin by bacterial communities” value ([1]; communities containing E. coli or K. pneumoniae) was “rapid transformation”, the “Transformation of Dox by bacterial communities” value ([1]; communities without either K. pneumoniae or E. coli (C5)) was “not able to enzymatically transform Dox” and the “C. innocuum growth in mixed communities” value ([1]; generation 2, medium and high concentrations of doxorubicin) was “not detected in all cultures”. The “Growth in 50% spent media” value (Lactobacillus [2]; [11]) was “able to grow”, the “Growth in 50% spent media” value (Lactobacillus [2]; [12]) was “unable to grow” and the “Change of Dox concentration in culture” value (Enterococcus faecalis [3]; E. faecalis culture, absorption at λ480) was “did not reduce the Dox concentration in culture”. For the same compound, the “Dox concentration in the 50% spent media” value (Enterococcus faecalis [3]; E. faecalis grown with initial 100 μM Dox) was 48.4±0.8, the “Growth after 25 hours” value (Clostridium innocuum; Dox 100 μM) was “did not observe any growth” and the “Dox concentration at which delayed growth was observed” value (Clostridium innocuum; monoculture) was ≤ 10 µM. For the same compound, the “Sensitivity to Dox” value (Clostridium innocuum; monoculture) was “highly sensitive”, the “Growth of Dox-sensitive C. innocuum in synthetic community” value [4] was “grew only following doxorubicin transformation” and the “Growth after 25 hours” value (Lactobacillus [5]; Dox 100 μM) was “did not observe any growth”. The “Dox concentration at which delayed growth was observed” value (Lactobacillus [5]; monoculture) was ≤ 10 µM, the “Sensitivity to Dox” value (Lactobacillus [5]; monoculture) was “highly sensitive” and the “Change of Dox concentration in culture” value (Klebsiella pneumoniae [6]; K. pneumoniae culture, absorption at λ480) was “reduced Dox concentration in culture”. The “Dox concentration in the 50% spent media” value (Klebsiella pneumoniae [6]; K. pneumoniae grown with initial 250 μM Dox) was 4.4±0.9, the “Change of Dox concentration in culture” value (Escherichia coli [7]; E. coli culture, absorption at λ480) was “reduced Dox concentration in culture” and the “Dox concentration in the 50% spent media” value (Escherichia coli [7]; E. coli grown with initial 250 μM Dox) was 4.1 ± 2.5 µM. The “Resistance to Dox” value (Enterococcus faecalis [8]) was “resistant to Dox”, the “Resistance to Dox” value (Klebsiella pneumoniae [9]) was “resistant” and the “Resistance to Dox” value (Escherichia coli [10]) was “resistant”.

In the case of gentamicin, the “Effect on K. pneumoniae growth” value (K. pneumoniae) is reported as “stalled K. pneumoniae growth”.
